Test systems include DMS-114; DMS-273; RXF 631; SNB-78; XF498; DLD-1; KM-20L2; M19-MEL; HOP-18.
Assay in all cases: NCI anticancer screen, dose series, 48 h

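Each compound was tested at five concentrations against cells in 96-well plates for 48 hours. Abbreviation: GI50, concentration required for 50% inhibition of growth.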 Activity calls are given as the source filed them. No stated cut-off is given here; in the data, active = GI50 up to about 1.1 µM and inactive = higher. A value given as a limit tells only on which side of the number the result lay.

For the compound `O=C(O)C1C2CC3CC2CC31` (stereo not given), the GI50 in the assay with DMS-114, in the assay on DMS-273, in the assay on RXF 631, in the assay with SNB-78 and with XF498 was > 100 µM (inactive) each time.
In the case of `CC1(c2cccc(N)c2)C2C(=O)NC(=O)C1C(=O)NC2=O` (stereo not given), the GI50 is 34.7 µM (inactive) in the assay on DLD-1; 27.5 µM (inactive) in the assay on DMS-114; 25.5 µM (inactive) in the assay on DMS-273; 27.6 µM (inactive) with KM-20L2; 37.2 µM (inactive) in the assay with M19-MEL; > 100 µM (inactive) with RXF 631. The results for the GI50 in the assay on SNB-78 and in the assay with XF498 were 51.2 µM (inactive) and 21.8 µM (inactive), respectively.
Consider `CCC12CC[C@H](C#N)N3CCc4c(n(c5ccccc45)C(=O)C1)C32` (stereo not given in full), for which the GI50 with DLD-1 is 18.3 µM (inactive); in the assay on DMS-273, 5.14 µM (inactive); in the assay with HOP-18, < 0.01 µM (active); in the assay with KM-20L2 it was 16.3 µM (inactive); in the assay on M19-MEL it was 18.7 µM (inactive); in the assay with RXF 631, 16.4 µM (inactive). The GI50 in the assay with SNB-78 was 19.5 µM (inactive); in the assay on XF498, 20 µM (inactive).
For the compound `C[C@@H]1C[C@@H]([C@H](O)CC2CC(=O)NC(=O)C2)C(=O)[C@@H](C)C1` [CYCLOHEXIMIDE], the GI50 was 0.0405 µM (active) with DLD-1; 0.102 µM (active) with DMS-114; 0.0557 µM (active) in the assay on DMS-273; 0.249 µM (active) in the assay on HOP-18; 0.0705 µM (active) in the assay with KM-20L2; 0.0607 µM (active) in the assay with M19-MEL. Also, the GI50 in the assay on RXF 631 is 0.0248 µM (active); with SNB-78 it was 0.0875 µM (active); with XF498 it was 0.0348 µM (active).
As for `COc1cc2cnc3c4cc(OC(C)C)c(OC)cc4ccc3c2cc1OC`, the GI50 with DLD-1, with DMS-114, in the assay with HOP-18, in the assay on KM-20L2, with M19-MEL and in the assay with XF498 was > 100 µM (inactive) in each case.
Consider `C/C(CCn1[nH]c(=O)ccc1=O)=N\NC(=O)C(N)=O`, for which the GI50 in the assay on DLD-1, in the assay with DMS-114, in the assay with DMS-273, in the assay with HOP-18, with KM-20L2 and with M19-MEL was > 100 µM (inactive) in each case. Also, the GI50 in the assay on SNB-78 and in the assay on XF498 was > 100 µM (inactive) each time.
For `CCNC(=O)COc1ccc(Cl)c(C)c1`, the GI50 in the assay with DLD-1, in the assay with DMS-114, in the assay with DMS-273, in the assay with HOP-18, with KM-20L2 and in the assay on M19-MEL was > 100 µM (inactive) in each case. Moreover, the GI50 with SNB-78 was > 100 µM (inactive).
`CCOC(=O)C[C@@]12CCCNC1(C)CCc1ccccc12` (stereo not given in full): the GI50 is > 100 µM (inactive) with DLD-1; > 100 µM (inactive) in the assay with DMS-114; > 100 µM (inactive) with DMS-273; 63.2 µM (inactive) in the assay on HOP-18; > 100 µM (inactive) with KM-20L2; > 100 µM (inactive) in the assay on M19-MEL. The GI50 in the assay with XF498 is > 100 µM (inactive).
Take `N#CC1CC2(C1)OCCS2` (stereo not given): the GI50 in the assay with DLD-1, in the assay with DMS-273, in the assay on KM-20L2 and in the assay on SNB-78 was > 100 µM (inactive) throughout.
`Cc1nc(Nc2ccc([N+](=O)[O-])cc2)sc1C(/C=C/c1ccc(N(C)C)cc1)=N/NC(=O)c1ccccc1`: the GI50 in the assay with DLD-1 was 55 µM (inactive); in the assay with DMS-114, 29 µM (inactive); in the assay on HOP-18, 72.8 µM (inactive); in the assay with KM-20L2 it was 36.3 µM (inactive); with M19-MEL it was 61.1 µM (inactive); in the assay on RXF 631 it was 32.6 µM (inactive). Moreover, the GI50 in the assay with SNB-78 was 41.6 µM (inactive); in the assay on XF498 it was > 100 µM (inactive).
In the case of `O=C(O)c1c([N+](=O)[O-])cc(C(F)(F)F)cc1[N+](=O)[O-]`, the GI50 was > 100 µM (inactive) in the assay with DMS-273; > 100 µM (inactive) in the assay with KM-20L2; > 100 µM (inactive) with M19-MEL; > 100 µM (inactive) with RXF 631; > 100 µM (inactive) in the assay with SNB-78; 35.2 µM (inactive) in the assay with XF498.
Consider `Cc1c(Cl)cccc1N1C(=O)C(Cl)=C(Cl)C1=O`, for which the GI50 with DLD-1 is > 66.8 µM (inactive); in the assay with DMS-114, > 100 µM (inactive); in the assay on DMS-273, > 100 µM (inactive); with HOP-18, > 100 µM (inactive); in the assay with KM-20L2, > 100 µM (inactive); in the assay with M19-MEL it was > 100 µM (inactive). In addition, the GI50 with SNB-78 was > 100 µM (inactive); with XF498, 66.7 µM (inactive).
Take `CC(=O)N1[C@H](C(=O)O)CS[C@H]1c1ccc(F)cc1`: the GI50 in the assay with DMS-114, with HOP-18, in the assay with M19-MEL, in the assay on RXF 631 and in the assay with SNB-78 was > 100 µM (inactive) throughout.
Consider `Nc1nc(Cl)cc(NCCCCCCCCNc2cc(Cl)nc(N)n2)n1`, for which the GI50 was 10.2 µM (inactive) in the assay with DLD-1; 8.79 µM (inactive) with DMS-273; 27.1 µM (inactive) with HOP-18; 9.48 µM (inactive) in the assay with KM-20L2; 16 µM (inactive) in the assay on M19-MEL; 71.6 µM (inactive) with SNB-78. For the same compound, the GI50 in the assay with XF498 is 1.64 µM (inactive).
With `CC(C)(O)[C@@H]1CC[C@@]2(C)CCCC(O)C2(O)C1` (stereo not given in full), the GI50 in the assay with DLD-1, with DMS-114, in the assay on DMS-273, in the assay with HOP-18, in the assay on KM-20L2 and with M19-MEL was > 100 µM (inactive) each time. Further, the GI50 in the assay on RXF 631 and in the assay with XF498 was > 100 µM (inactive) throughout.
On to `CC(CCCOC(c1ccccc1)(c1ccccc1)c1ccccc1)OC(=O)Nc1ccccc1` (stereo not given), for which the GI50 was 13.7 µM (inactive) with DLD-1; 12.1 µM (inactive) in the assay on DMS-114; 15.5 µM (inactive) in the assay with DMS-273; 5.12 µM (inactive) with KM-20L2; 14.6 µM (inactive) in the assay with M19-MEL; 16.4 µM (inactive) in the assay on SNB-78. Also, the GI50 in the assay with XF498 is 14.9 µM (inactive).
Turning to `O=C1OC(=O)C23CSCC12C1C=CC3O1` (stereo not given), the GI50 with DLD-1, in the assay with DMS-114, in the assay with DMS-273, with KM-20L2, with M19-MEL and in the assay with XF498 was > 100 µM (inactive) each time.
`CCOC(=O)c1cn(Cc2ccccc2)c(=O)n1Cc1ccccc1`: the GI50 in the assay with DLD-1 is > 100 µM (inactive); in the assay on DMS-114, 94 µM (inactive); in the assay on DMS-273 it was > 100 µM (inactive); with HOP-18 it was > 100 µM (inactive); in the assay on KM-20L2, > 100 µM (inactive); in the assay with M19-MEL it was > 100 µM (inactive). In addition, the GI50 in the assay on RXF 631 is > 100 µM (inactive); with SNB-78 it was > 100 µM (inactive); in the assay on XF498 it was 25.8 µM (inactive).
As to `CCCCCCCCOCC(O)COC` (stereo not given), the GI50 with DLD-1, with DMS-114, in the assay with DMS-273, with HOP-18 and in the assay on M19-MEL was > 100 µM (inactive) in each case.
As for `C/C(CN1C(=O)c2ccccc2C1=O)=N\NS(=O)(=O)c1cccc([N+](=O)[O-])c1`, the GI50 with DLD-1, with DMS-273, in the assay with HOP-18, in the assay with KM-20L2, with M19-MEL and in the assay with RXF 631 was > 100 µM (inactive) each time. In addition, the GI50 with SNB-78 and with XF498 was > 100 µM (inactive) throughout.
Take `COc1ccc2c(c1)C(=O)C1CC(=O)CCC21` (stereo not given): the GI50 in the assay on DLD-1, in the assay with DMS-114, in the assay on DMS-273, in the assay with HOP-18, in the assay on KM-20L2 and in the assay with M19-MEL was > 100 µM (inactive) each time. Further, the GI50 with RXF 631 and with SNB-78 was > 100 µM (inactive) each time.
On to `O=C(/C(=C/c1ccc(Cl)cc1)c1ccccc1)c1ccccc1`, for which the GI50 in the assay on DLD-1 is 15.2 µM (inactive); with DMS-114, 16.7 µM (inactive); in the assay with HOP-18, 26.5 µM (inactive); in the assay on SNB-78, 19.9 µM (inactive); in the assay with XF498, 18.5 µM (inactive).
Consider `O=C1O[C@H](c2ccccc2)[C@@H]2CC3(CCN12)OCCO3`, for which the GI50 in the assay with DMS-273, in the assay with KM-20L2, in the assay with RXF 631 and in the assay on XF498 was > 100 µM (inactive) throughout.
On to `COc1ccc(/C(C#N)=C(/N)SCc2ccccc2Cl)cc1`, for which the GI50 in the assay on DLD-1 is 14.1 µM (inactive); with DMS-114 it was 17.7 µM (inactive); in the assay with HOP-18, 19.5 µM (inactive); in the assay with KM-20L2, 17.8 µM (inactive); in the assay on M19-MEL it was 16.6 µM (inactive); in the assay on SNB-78, 27 µM (inactive). For the same compound, in the assay with XF498, the GI50 was 14.8 µM (inactive).
As for `COc1cc(C=O)c(-c2cc3c(cc2C=O)OCO3)c(OC)c1OC`, the GI50 was 88.7 µM (inactive) in the assay on DLD-1; 84.5 µM (inactive) with DMS-114; 85.5 µM (inactive) in the assay on DMS-273; > 290 µM (inactive) with HOP-18; 69.5 µM (inactive) with KM-20L2; 89.1 µM (inactive) with M19-MEL. In addition, the GI50 in the assay on RXF 631 is 115 µM (inactive).
